In patent US20080214445A1, “Method of Treating a Solid Tumor Disease Comprising Administering a Combination Comprising Imatinib and an Inhibitor of an Efflux Pump Active at the Blood Brain Barrier or Demethyl Imatinib” (priority 2005, published 2008):
Blank lines part the entries; values can stand above or below the compound they belong to.

Key:
Rat C6 glioma cells = assay: Accumulation of CGP74588 into rat C6 glioma cells; assay type: cell-based; conditions: for average fold increase of CGP74588 accumulation: 15 min pre-incubation, 1 min incubation with CGP74588, rat C6 cells
Protocol: Rat C6 glioma cells are used as a model for glioma in in vitro or in vivo studies, to investigate the effect of this combination on cell proliferation.
Rat C6 glioma cells are maintained in high glucose Dulbecco's modified medium supplemented with 10% fetal calf serum and […] L-Glutamine in a humidified atmosphere of 95% air-5% CO2. All accumulation assays are conducted on cultures at confluence. For this purpose, the cells are seeded on 24-well plates at a density of 100×10^3 cells/cm^2 and left to proliferate in culture medium for 48 h.
For competition assays, the cultures are pre-incubated with various concentrations of the different competitors for 15 min. […] The cellular accumulation of 1.5 μM CGP74588 is also studied in C6 cells that have been pre-incubated with hydroxyurea (1, 10, 100 or 1000 μM) for 48 h.

BCRP = target: T1, BCRP (Homo sapiens, UniProt Q9UNQ0); assay: BCRP efflux pump inhibition / transport
T1 sequence (Q9UNQ0 1-655): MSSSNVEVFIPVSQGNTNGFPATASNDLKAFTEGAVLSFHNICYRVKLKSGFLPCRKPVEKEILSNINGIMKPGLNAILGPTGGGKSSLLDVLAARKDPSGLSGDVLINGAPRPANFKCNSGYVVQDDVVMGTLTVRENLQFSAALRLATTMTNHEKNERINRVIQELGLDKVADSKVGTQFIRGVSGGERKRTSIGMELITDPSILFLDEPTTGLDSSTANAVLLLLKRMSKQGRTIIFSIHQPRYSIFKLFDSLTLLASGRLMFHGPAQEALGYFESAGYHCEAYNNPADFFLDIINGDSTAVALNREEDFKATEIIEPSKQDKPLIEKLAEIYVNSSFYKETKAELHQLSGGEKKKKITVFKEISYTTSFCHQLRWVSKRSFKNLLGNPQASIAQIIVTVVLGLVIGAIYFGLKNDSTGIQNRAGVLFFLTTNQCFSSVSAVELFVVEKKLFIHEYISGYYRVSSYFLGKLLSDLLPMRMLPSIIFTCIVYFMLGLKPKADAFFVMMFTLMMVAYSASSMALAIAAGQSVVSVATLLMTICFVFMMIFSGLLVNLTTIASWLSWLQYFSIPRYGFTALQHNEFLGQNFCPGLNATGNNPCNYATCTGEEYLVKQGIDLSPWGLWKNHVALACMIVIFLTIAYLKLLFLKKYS

in vivo = conditions: Hanover Wistar, rat, iv, 12.5 mg/kg
[1] = Hanover Wistar, rat, in vivo, iv
[2] = test system: P-glycoprotein and Breast-Cancer Resistance Protein (suggested by experiments in mdr1a1b(-/-) mice); assay: in vivo; conditions: FVB, mouse
[3] = Blood and brain pharmacokinetics in Hanover Wistar rats after intravenous [14C]STI571 with or without PSC833
[4] = FVB wild-type mice; co-perfusion of valspodar 10 μM with imatinib 0.5 μM
[5] = Concentration of STI571 in brain, Mean
[6] = Concentration of STI571 in brain, individual data

SMILES: COc1cc2c(cc1OC)CN(CCc1ccc(NC(=O)c3cccc4c(=O)c5cccc(OC)c5[nH]c34)cc1)CC2 [elacridar]
average fold increase of CGP74588 accumulation (Rat C6 glioma cells; inhibitor 1 μM): 1.7 fold | average fold increase of CGP74588 accumulation (Rat C6 glioma cells; inhibitor 10 μM): 2.3 fold

SMILES: Cl.Cl.Cl.O[C@@H](COc1cccc2ncccc12)CN1CCN(C2c3ccccc3[C@@H]3[C@H](c4ccccc42)C3(F)F)CC1 (stereo partly drawn) [zosuquidar, 1-[4-(1,1-difluor-1,1aR,6S,10bS-tetrahydrodibenzo[a,e]-cyclo-propa[c]cyclohepten-6-yl)piperazin-1-yl]-3-(chinolin-5-yloxy)-2(R)-propanol-trihydrochloride]
average fold increase of CGP74588 accumulation (Rat C6 glioma cells; inhibitor 1 μM): 1.7 fold | average fold increase of CGP74588 accumulation (Rat C6 glioma cells; inhibitor 10 μM): 2.3 fold

Now from value to compound, other results behind:

BCRP inhibition (BCRP): not | transport by efflux pump (BCRP): dominated by BCRP
SMILES: Cc1ccc(NC(=O)c2ccc(CN3CCNCC3)cc2)cc1Nc1nccc(-c2cccnc2)n1 [CGP74588, N-{5-[4-(piperazino-methyl)-benzoylamido]-2-methylphenyl}-4-(3-pyridyl)-2-pyrimidine-amine]
accumulation in rat C6 cells (Rat C6 glioma cells; CGP74588 0.5-50 μM): concentration dependant

Cmax (in vivo): 893 ng/g | Tmax (in vivo): 15 min | concentration at 0.25 h (in vivo; [5]): 893 ng/g | concentration at 0.5 h (in vivo; [5]): 533 ng/g | concentration at 1 h (in vivo; [5]): 550 ng/g | concentration at 2 h (in vivo; [5]): 333 ng/g | concentration at 4 h (in vivo; [5]): 115 ng/g | concentration at 8 h (in vivo; [5]): 38 ng/g | concentration at 1 h (in vivo; [6]): 540 ng/g | concentration at 2 h (in vivo; [6]): 402 ng/g | concentration at 4 h (in vivo; [6]): 102 ng/g | concentration at 8 h (in vivo; [6]): 52 ng/g | time post dose at which brain Cmax is reached [1]: 15 min | Km [2]: 5 to 10 µM
SMILES: Cc1ccc(NC(=O)c2ccc(CN3CCN(C)CC3)cc2)cc1Nc1nccc(-c2cccnc2)n1 [STI571, N-{5-[4-(4-methyl-piperazino-methyl)-benzoylamido]-2-methylphenyl}-4-(3-pyridyl)-2-pyrimidine-amine]

effect on the elimination slope of unchanged STI571 from brain to blood ([3]; 12.5 mg/kg STI571 and 10 mg/kg PSC833 i.v.): does not significantly modify | impact on the plasma pharmacokinetics of imatinib ([3]; valspodar 10 mg/kg i.v. with imatinib 12.5 mg/kg i.v.): no significant impact | effect on distribution of imatinib into the brain [4]: markedly enhance
SMILES: C/C=C/C[C@@H](C)C(=O)[C@H]1C(=O)N[C@@H](C(C)C)C(=O)N(C)CC(=O)N(C)[C@@H](CC(C)C)C(=O)N[C@@H](C(C)C)C(=O)N(C)[C@@H](CC(C)C)C(=O)N[C@@H](C)C(=O)N[C@H](C)C(=O)N(C)[C@@H](CC(C)C)C(=O)N(C)[C@@H](CC(C)C)C(=O)N(C)[C@@H](C(C)C)C(=O)N1C [valspodar, [3′-desoxy-3′-oxo-MeBmt]^1-[Val]^2-Ciclosporin A]
average fold increase of CGP74588 accumulation (Rat C6 glioma cells; inhibitor 1 μM): 1.7 fold | average fold increase of CGP74588 accumulation (Rat C6 glioma cells; inhibitor 10 μM): 2.3 fold
